pIC50: −log10 of the molar value.
Legend:
Human αvβ3 = biological target: T1, Human αvβ3 (Homo sapiens, UniProt P05106+P06756); assay: In vitro solid phase purified αvβ3 binding assay (vitronectin/αvβ3); settings: isolated human αvβ3, 5 nM vitronectin; read-out: αvβ3 Binding IC50
T1 construct: purchased Chemicon International Inc., Temecula, Calif
Method: (§1) In vitro Solid Phase Purified αvβ3 Binding Assay The vitronectin/αvβ3 binding assay methods were derived from Mehta et al. (Biochem J. 1998, 330, 861). Human αvβ3 (Chemicon International Inc., Temecula, Calif.), at a concentration of 1 μg/ml dissolved in Tris buffer (20 mM Tris, 1 mM CaCl2, 1 mM MgCl2, 10 μM MnCl2, 150 mM NaCl), was immobilized on Immulon 96 well plates (Dynex Technologies, Chantilly, Va.) overnight at 4° C. Plates were washed and treated with blocking buffer (3% BSA in Tris buffer) for 2 h at 37 C. Plates were then rinsed 2 times in Tris buffer containing 0.3% BSA and 0.2% Tween20 (polyoxyethylenesorbitan monolaurate). Five minutes prior to the addition of 5 nM vitronectin (Sigma, St. Louis, Mo.), compounds of the invention were added to wells in duplicate. Each plate included c-RGDfV as an internal control. Following a 3 hour incubation at 37° C., plates were washed 5 times in assay buffer. An anti-human vitronectin IgG rabbit polyclonal antibody (Calbiochem, San Diego, Calif.) was added (1:2000) and plates were incubated for 1 hour at room temperature. VectaStain ABC peroxidase kit reagents (Vector Laboratories, Burlingame, Calif.) employing a biotin labeled anti-rabbit IgG, were utilized for detection of bound antibody. Plates were read at 490 nm on a Molecular Devices (Sunnyvale, Calif.) microplate reader. […] The plate was covered and incubated overnight at 4° C. The GPIIb/IIIa solution was discarded and 150 μl of 5% BSA was added and incubated at RT for 1–3 h. The plate was washed extensively with modified Tyrodes buffer. Biotinylated fibrinogen (25 μl/well) at 2× final concentration was added to the wells that contain the test compounds (25 μl/well). The plate was covered and incubated at RT for 2–4 h. Twenty minutes prior to incubation completion, one drop of Reagent A (VectaStain ABC Horse Radish Peroxidase kit, Vector Laboratories, Inc.) and one drop Reagent B were added with mixing to 5 mL modified Tyrodes buffer mix and let stand. The ligand solution was discarded and the plate washed (5×200 μl/well) with modified Tyrodes buffer. Vecta Stain HRP-Biotin-Avidin reagent (50 μl/well, as prepared above) was added and incubated at RT for 15 min. The Vecta Stain solution was discarded and the wells washed (5×200 μl/well) with modified Tyrodes buffer. Developing buffer (10 mL of 50 mM citrate/phosphate buffer @ pH 5.3, 6 mg o-phenylenediamine, 6 μl 30% H2O2; 50 μl/well) was added and incubated at rt for 3–5 min, and then 2 N H2SO4 (50 μl/well) was added. The absorbance was read at 490 nm.

GPIIb/IIIa = GPIIb/IIIa (Homo sapiens, UniProt P05106+P08514); assay: In vitro solid phase purified glycoprotein IIb/IIIa binding assay (biotinylated fibrinogen); settings: RGD-affinity purified GPIIb/IIIa, biotinylated fibrinogen; read-out: GPIIb/IIIa Binding IC50
Sequence of GPIIb/IIIa (P08514 32-887 limits assumed): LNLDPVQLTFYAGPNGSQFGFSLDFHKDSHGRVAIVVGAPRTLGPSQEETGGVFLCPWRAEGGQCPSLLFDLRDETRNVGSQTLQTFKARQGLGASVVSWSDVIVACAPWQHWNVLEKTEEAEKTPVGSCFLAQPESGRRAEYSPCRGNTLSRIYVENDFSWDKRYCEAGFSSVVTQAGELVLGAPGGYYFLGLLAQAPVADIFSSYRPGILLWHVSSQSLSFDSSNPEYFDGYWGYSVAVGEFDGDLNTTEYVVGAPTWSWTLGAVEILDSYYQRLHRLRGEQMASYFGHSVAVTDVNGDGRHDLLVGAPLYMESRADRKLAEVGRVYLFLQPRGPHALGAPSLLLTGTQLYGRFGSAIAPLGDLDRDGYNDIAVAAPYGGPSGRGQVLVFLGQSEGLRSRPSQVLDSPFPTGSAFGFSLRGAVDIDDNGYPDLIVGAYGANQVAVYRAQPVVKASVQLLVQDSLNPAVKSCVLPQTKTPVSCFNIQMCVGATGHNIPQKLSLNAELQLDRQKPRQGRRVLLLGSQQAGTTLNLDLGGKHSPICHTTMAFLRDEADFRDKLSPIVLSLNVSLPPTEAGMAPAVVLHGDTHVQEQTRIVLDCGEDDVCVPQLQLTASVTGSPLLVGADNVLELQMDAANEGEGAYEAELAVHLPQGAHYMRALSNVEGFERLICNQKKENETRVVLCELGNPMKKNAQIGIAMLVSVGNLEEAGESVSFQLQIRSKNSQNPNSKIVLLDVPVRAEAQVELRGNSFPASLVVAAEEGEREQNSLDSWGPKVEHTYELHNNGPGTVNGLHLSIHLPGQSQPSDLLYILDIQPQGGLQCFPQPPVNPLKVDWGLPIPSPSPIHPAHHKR
Sequence of GPIIb/IIIa (P08514 891-1039 partner limits assumed): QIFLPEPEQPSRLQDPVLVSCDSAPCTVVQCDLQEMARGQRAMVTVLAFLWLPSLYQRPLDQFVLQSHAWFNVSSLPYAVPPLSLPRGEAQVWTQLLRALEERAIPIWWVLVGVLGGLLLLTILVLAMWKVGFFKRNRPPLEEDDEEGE
Sequence of GPIIb/IIIa (P05106 27-788): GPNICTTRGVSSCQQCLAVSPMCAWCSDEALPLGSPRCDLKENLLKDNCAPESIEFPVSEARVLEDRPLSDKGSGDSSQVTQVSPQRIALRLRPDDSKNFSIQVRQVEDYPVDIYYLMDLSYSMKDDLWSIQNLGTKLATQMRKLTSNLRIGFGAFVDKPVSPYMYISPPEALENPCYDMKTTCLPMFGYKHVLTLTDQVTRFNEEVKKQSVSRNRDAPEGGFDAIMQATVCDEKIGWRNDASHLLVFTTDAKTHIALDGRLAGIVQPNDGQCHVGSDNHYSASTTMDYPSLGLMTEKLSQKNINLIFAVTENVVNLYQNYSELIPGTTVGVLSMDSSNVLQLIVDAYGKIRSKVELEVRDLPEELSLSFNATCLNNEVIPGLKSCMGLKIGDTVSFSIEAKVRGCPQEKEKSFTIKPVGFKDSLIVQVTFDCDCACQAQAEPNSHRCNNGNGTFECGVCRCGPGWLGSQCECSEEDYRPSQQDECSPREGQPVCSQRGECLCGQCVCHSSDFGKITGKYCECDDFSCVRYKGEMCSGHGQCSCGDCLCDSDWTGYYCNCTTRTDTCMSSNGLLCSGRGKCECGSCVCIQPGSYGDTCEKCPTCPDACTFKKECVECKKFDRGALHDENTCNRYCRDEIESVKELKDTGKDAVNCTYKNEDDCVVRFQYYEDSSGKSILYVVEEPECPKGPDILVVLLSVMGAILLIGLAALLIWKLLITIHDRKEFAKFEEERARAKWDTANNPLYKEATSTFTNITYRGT
Method: as §1

T1 sequence (P06756 31-889 limits assumed): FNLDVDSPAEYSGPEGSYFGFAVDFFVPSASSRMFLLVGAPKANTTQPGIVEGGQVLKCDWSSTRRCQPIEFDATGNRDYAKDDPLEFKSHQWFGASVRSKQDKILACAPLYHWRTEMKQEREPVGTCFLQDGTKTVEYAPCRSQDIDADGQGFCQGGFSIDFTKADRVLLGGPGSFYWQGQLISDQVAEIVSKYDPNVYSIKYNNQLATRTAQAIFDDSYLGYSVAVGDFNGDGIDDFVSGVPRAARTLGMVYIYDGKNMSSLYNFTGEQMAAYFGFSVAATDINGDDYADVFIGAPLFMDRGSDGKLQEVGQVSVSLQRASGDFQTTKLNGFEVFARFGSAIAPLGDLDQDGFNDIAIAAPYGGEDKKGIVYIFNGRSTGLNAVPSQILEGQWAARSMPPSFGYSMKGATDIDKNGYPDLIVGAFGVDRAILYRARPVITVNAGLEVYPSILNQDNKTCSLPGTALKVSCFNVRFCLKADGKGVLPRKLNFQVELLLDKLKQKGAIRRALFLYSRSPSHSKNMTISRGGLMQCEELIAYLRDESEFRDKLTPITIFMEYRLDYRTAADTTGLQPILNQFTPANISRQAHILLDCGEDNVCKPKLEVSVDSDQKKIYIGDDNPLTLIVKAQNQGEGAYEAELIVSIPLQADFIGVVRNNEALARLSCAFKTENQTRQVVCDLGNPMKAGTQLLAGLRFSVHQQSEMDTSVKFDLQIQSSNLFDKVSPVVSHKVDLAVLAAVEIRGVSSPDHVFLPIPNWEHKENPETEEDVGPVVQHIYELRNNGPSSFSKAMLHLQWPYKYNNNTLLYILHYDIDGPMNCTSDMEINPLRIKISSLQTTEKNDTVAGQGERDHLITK
T1 sequence (P06756 891-1048 partner limits assumed): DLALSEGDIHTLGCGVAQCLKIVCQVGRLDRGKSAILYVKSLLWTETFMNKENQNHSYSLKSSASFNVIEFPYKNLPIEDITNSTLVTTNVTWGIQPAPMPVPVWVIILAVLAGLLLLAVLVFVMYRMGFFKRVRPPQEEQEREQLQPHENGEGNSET
T1 sequence (P05106 27-788): as the sequence (P05106 27-788) above

Row | SMILES | pIC50 (Human αvβ3) | pIC50 (GPIIb/IIIa)
1 | COc1ccc(S(=O)(=O)N[C@@H](Cc2nc3ccc(/C=C/CNC(=O)NCc4ccccc4)cc3c(=O)[nH]2)C(=O)O)cc1 [Compound 57, (αS)-3,4-dihydro-α-[[(4-methoxyphenyl)sulfonyl]amino]-4-oxo-6-[(1E)-3-[[[(phenylmethyl)amino]carbonyl]amino]-1-propenyl]-2-quinazolinepropanoic acid] | 7.37 | 5.43
2 | O=C(O)CCc1nc2ccc(/C=C/CNc3ccccn3)cc2c(=O)n1Cc1ccccc1 [Compound 82, 3,4-dihydro-4-oxo-3-(phenylmethyl)-6-[(1E)-3-(2-pyridinylamino)-1-propenyl]-2-quinazolinepropanoic acid] | < 5.30 | < 4.30
3 | Cc1coc(NC/C=C/c2ccc3nc(C[C@H](NS(=O)(=O)c4c(C)c(C)c(C)c(C)c4C)C(=O)O)[nH]c(=O)c3c2)n1 [Compound 81, (αS)-3,4-dihydro-6-[(1E)-3-[(4-methyl-2-oxazolyl)amino]-1-propenyl]-4-oxo-α-[[(2,3,4,5,6-pentamethylphenyl)sulfonyl]amino]-2-quinazolinepropanoic acid] | < 5.30 | 5.15
4 | O=C(O)[C@H](Cc1nc2ccc(/C=C/CNc3ccccn3)cc2c(=O)[nH]1)NS(=O)(=O)c1ccc(C(F)(F)F)cc1 [Compound 25, (αS)-3,4-dihydro-4-oxo-6-[(1E)-3-(2-pyridinylamino)-1-propenyl]-α-[[[4-(trifluoromethyl)phenyl]sulfonyl]amino]-2-quinazolinepropanoic acid] | 7.14 | 5.02
5 | COc1cccc([C@@H](CC(=O)O)c2nc3ccc(/C=C/CNc4ccccn4)cc3c(=O)n2C)c1 [Compound 18, (βR)-3,4-dihydro-β-(3-methoxyphenyl)-3-methyl-4-oxo-6-[(1E)-3-(2-pyridinylamino)-1-propenyl]-2-quinazolinepropanoic Acid] | 4.74 | < 4.30
6 | O=C(O)[C@H](Cc1nc2ccc(/C=C/CNc3ccccn3)cc2c(=O)[nH]1)NS(=O)(=O)c1ccc(-c2ccon2)s1 [Compound 31, (αS)-3,4-dihydro-α-[[[5-(3-isoxazolyl)-2-thienyl]sulfonyl]amino]-4-oxo-6-[(1E)-3-(2-pyridinylamino)-1-propenyl]-2-quinazolinepropanoic acid] | 7.15 | 5.74
7 | COc1ccc(S(=O)(=O)N[C@@H](Cc2nc3ccc(/C=C/CNC(=O)NCc4ccccc4)cc3c(=O)[nH]2)C(=O)O)cc1OC [Compound 54, α-[[(3,4-dimethoxyphenyl)sulfonyl]amino]-(αS)-3,4-dihydro-4-oxo-6-[(1E)-3-[[[(phenylmethyl)amino]carbonyl]amino]-1-propenyl]-2-quinazolinepropanoic acid] | 7.42 | 5.30
8 | CC(C)(C)OC(=O)N[C@@H](Cc1nc2ccc(/C=C/CNC3=NCCCCC3)cc2c(=O)[nH]1)C(=O)O [Compound 71, α-[[(1,1-dimethylethoxy)carbonyl]amino]-(αS)-3,4-dihydro-4-oxo-6-[(1E)-3-[(3,4,5,6-tetrahydro-2H-azepin-7-yl)amino]-1-propenyl]-2-quinazolinepropanoic acid] | 6.02 | 4.92
9 | Cc1c(C)c(C)c(S(=O)(=O)N[C@@H](Cc2nc3ccc(/C=C/CNC(=O)NCCc4ccccc4)cc3c(=O)[nH]2)C(=O)O)c(C)c1C [Compound 80, (αS)-3,4-dihydro-4-oxo-α-[[(2,3,4,5,6-pentamethylphenyl)sulfonyl]amino]-6-[(1E)-3-[[[(2-phenylethyl)amino]carbonyl]amino]-1-propenyl]-2-quinazolinepropanoic acid] |  | 5.57
10 | CC(C)(C)c1ccc(S(=O)(=O)N[C@@H](Cc2nc3ccc(/C=C/CNc4ccccn4)cc3c(=O)[nH]2)C(=O)O)cc1 [Compound 23, α-[[[4-(1,1-dimethylethyl)phenyl]sulfonyl]amino]-(αS)-3,4-dihydro-4-oxo-6-[(1E)-3-(2-pyridinylamino)-1-propenyl]-2-quinazolinepropanoic acid] |  | 5.19

These reach a higher pIC50 (GPIIb/IIIa). Values come first.

Row | pIC50 (Human αvβ3) | pIC50 (GPIIb/IIIa) | SMILES
11 | 7.89 | 5.96 | COc1ccc(S(=O)(=O)N[C@@H](Cc2nc3ccc(/C=C/CNc4ccccn4)cc3c(=O)[nH]2)C(=O)O)cc1OC [Compound 33, α-[[(3,4-dimethoxyphenyl)sulfonyl]amino]-(αS)-3,4-dihydro-4-oxo-6-[(1E)-3-(2-pyridinylamino)-1-propenyl]-2-quinazolinepropanoic acid]
12 | 7.66 | 6.06 | Cc1ccc(NC/C=C/c2ccc3nc(C[C@H](NS(=O)(=O)c4c(C)c(C)c(C)c(C)c4C)C(=O)O)[nH]c(=O)c3c2)nc1 [Compound 43, (αS)-3,4-dihydro-6-[(1E)-3-[(5-methyl-2-pyridinyl)amino]-1-propenyl]-4-oxo-α-[[(2,3,4,5,6-pentamethylphenyl)sulfonyl]amino]-2-quinazolinepropanoic acid]
13 | 8.02 | 6.19 | Cc1c(C)c(C)c(S(=O)(=O)N[C@@H](Cc2nc3ccc(CCCNc4ccccn4)cc3c(=O)[nH]2)C(=O)O)c(C)c1C [Compound 11, (αS)-3,4-dihydro-4-oxo-α-[[(2,3,4,5,6-pentamethylphenyl)sulfonyl]amino]-6-[3-(2-pyridinylamino)propyl]-2-quinazolinepropanoic Acid]
14 | 6.68 | 6.24 | O=C(N[C@@H](Cc1nc2ccc(/C=C/CCNC3=NCCN3)cc2c(=O)[nH]1)C(=O)O)OCc1ccccc1 [Compound 8, 6-[(1E)-4-[(4,5-dihydro-1H-imidazol-2-yl)amino]-1-butenyl]-(αS)-3,4-dihydro-4-oxo-α-[[(phenylmethoxy)carbonyl]amino]-2-quinazolinepropanoic Acid]
15 | 7.38 | 6.57 | COc1ccc(S(=O)(=O)N[C@@H](Cc2nc3ccc(/C=C/CNC4=NCCC4)cc3c(=O)[nH]2)C(=O)O)cc1OC [Compound 55, 6-[(1E)-3-[(3,4-dihydro-2H-pyrrol-5-yl)amino]-1-propenyl]-α-[[(3,4-dimethoxyphenyl)sulfonyl]amino]-(αS)-3,4-dihydro-4-oxo-2-quinazolinepropanoic acid]
16 | 5.85 | 6.66 | Cc1cccnc1NC/C=C/c1ccc2nc(C[C@H](NS(=O)(=O)c3c(C)c(C)c(C)c(C)c3C)C(=O)O)[nH]c(=O)c2c1 [Compound 38, (αS)-3,4-dihydro-6-[(1E)-3-[(3-methyl-2-pyridinyl)amino]-1-propenyl]-4-oxo-α-[[(2,3,4,5,6-pentamethylphenyl)sulfonyl]amino]-2-quinazolinepropanoic acid]
17 | 7.51 | 6.70 | Cc1c(C)c(C)c(S(=O)(=O)N[C@@H](Cc2nc3ccc(/C=C/CNC(N)=O)cc3c(=O)[nH]2)C(=O)O)c(C)c1C [Compound 53, 6-[(1E)-3-[(aminocarbonyl)amino]-1-propenyl]-(αS)-3,4-dihydro-4-oxo-α-[[(2,3,4,5,6-pentamethylphenyl)sulfonyl]amino]-2-quinazolinepropanoic acid]
18 | 6.70 | 7.08 | Cc1c(C)c(C)c(S(=O)(=O)N[C@@H](Cc2nc3ccc(/C=C/CNc4nccn4C)cc3c(=O)[nH]2)C(=O)O)c(C)c1C [Compound 30, (αS)-3,4-dihydro-6-[(1E)-3-[(1-methyl-1H-imidazol-2-yl)amino]-1-propenyl]-4-oxo-α-[[(2,3,4,5,6-pentamethylphenyl)sulfonyl]amino]-2-quinazolinepropanoic acid]
19 | 7.74 | 7.11 | Cc1c(C)c(C)c(S(=O)(=O)N[C@@H](Cc2nc3ccc(/C=C/CNC4=NCCC4)cc3c(=O)[nH]2)C(=O)O)c(C)c1C [Compound 15, 6-[(1E)-3-[(3,4-dihydro-2H-pyrrol-5-yl)amino]-1-propenyl]-(αS)-3,4-dihydro-4-oxo-α-[[(2,3,4,5,6-pentamethylphenyl)sulfonyl]amino]-2-quinazolinepropanoic Acid]
20 | 9.12 | 7.62 | Cc1c(C)c(C)c(S(=O)(=O)N[C@@H](Cc2nc3ccc(/C=C/CNC4=NCCN4)cc3c(=O)[nH]2)C(=O)O)c(C)c1C [Compound 1, 6-[(1E)-3-[(4,5-dihydro-1H-imidazol-2-yl)amino]-1-propenyl]-(αS)-3,4-dihydro-4-oxo-α-[[(2,3,4,5,6-pentamethylphenyl)sulfonyl]amino]-2-quinazolinepropanoic Acid]

Source: patent US7081460B2, “Quinazoline and quinazoline-like compounds for the treatment of integrin-mediated disorders” (Ortho-McNeil Pharmaceutical, Inc., priority 2001, dated 2006)
